MIC data for three compounds are collected here from DBAASP.

Test systems include Escherichia coli W160-37; Bacillus subtilis; Micrococcus luteus MT166; Escherichia coli 117; Staphylococcus aureus 37; Shigella dysenteriae; Escherichia coli 218; Klebsiella pneumoniae; Escherichia coli 37; Pseudomonas aeruginosa.
Test in all cases: ≥ marks a high value that may be exact or a test limit, other limits are often not marked, values filed in µg/mL are converted to µM
The subject of assay [1] is Pseudomonas putida NCIM 2102.
The test system of assay [2] is Saccharomyces cerevisiae ATCC 8530.
In assay [3] the test system is Staphylococcus aureus ATCC 8530.
For assay [4], the system named is Enterococcus faecalis ATCC 29212.
The subject of assay [5] is Escherichia coli ATCC 25922.
Assay [6] deals with Candida albicans ATCC 90028.
Assay [7] has as its system Enterobacter cloacae ATCC 13047.
Assay [8] deals with Pseudomonas aeruginosa CMCCB 1010.
Assay [9] relates to Staphylococcus aureus ATCC 25923.
In assay [10] the test system is Klebsiella pneumoniae ATCC 700603.
Assay [11] has as its system Candida parapsilosis ATCC 22019.
In assay [12] the test system is Pseudomonas aeruginosa ATCC 27853.
The test system of assay [13] is Candida albicans ATCC 2002.
For assay [14], the system named is Pseudomonas aeruginosa 253.
The subject of assay [15] is Pseudomonas aeruginosa 910.
Assay [16] concerns Pseudomonas aeruginosa 919.
Assay [17] concerns Pseudomonas aeruginosa PAO1.

≈ marks a conversion by molar mass, not a printed value.

A word on the MIC: it is the smallest concentration in the dilution series that meets the test's criterion for growth inhibition. Low readings indicate a more susceptible organism, high ones a less susceptible organism. For `CC[C@H](C)[C@@H]1NC(=O)[C@H](CCSC)NC(=O)[C@H]([C@@H](C)O)NC(=O)[C@@H](NC(=O)[C@@H](N)Cc2ccccc2)CSSC[C@@H](C(=O)N[C@@H](Cc2ccc(O)cc2)C(N)=O)NC(=O)[C@H](CCCN=C(N)N)NC(=O)[C@@H]2CCCN2C(=O)[C@H]([C@@H](C)CC)NC(=O)[C@@H]2CCCN2C1=O` [FCTMIPIPRCY], the MIC is 29.8 µM (≈ 39.9 µg/mL) in assay [1]; no less than 59.5 µM in assay [2]; 29.8 µM (≈ 39.9 µg/mL) against Escherichia coli W160-37; 22.3 µM (≈ 29.9 µg/mL) in [3]; 22.3 µM (≈ 29.9 µg/mL) in the assay on Bacillus subtilis; 14.9 µM (≈ 20 µg/mL) against Micrococcus luteus MT166.
With `CC[C@H](C)[C@H](NC(=O)[C@H](C)NC(=O)[C@H](CCCCN)NC(=O)[C@H](CC(C)C)NC(=O)[C@@H](N)CC(N)=O)C(=O)N[C@@H](C)C(=O)N[C@@H](C)C(=O)N[C@@H](CC(C)C)C(=O)N[C@@H](C)C(=O)N[C@@H](CCCCN)C(=O)N[C@@H](CCCCN)C(=O)N[C@@H](CC(C)C)C(=O)N[C@@H](CC(C)C)C(=O)O` [NLKAIAALAKKLL], the MIC against Escherichia coli 117 is 14.6 µM (≈ 20 µg/mL); in assay [4], 3.66 µM (≈ 5 µg/mL); in [5], 14.6 µM (≈ 20 µg/mL); in the assay on Staphylococcus aureus 37 it was 7.32 µM (≈ 10 µg/mL); in [6], 7.32 µM (≈ 10 µg/mL); in [7], 7.32 µM (≈ 10 µg/mL). Further, the MIC in [8] was 14.6 µM (≈ 20 µg/mL); in assay [9], 3.66 µM (≈ 5 µg/mL); in the assay on Shigella dysenteriae, 14.6 µM (≈ 20 µg/mL); with Escherichia coli 218 it was 7.32 µM (≈ 10 µg/mL); in the assay on Klebsiella pneumoniae it was 7.32 µM (≈ 10 µg/mL); in assay [10], 14.6 µM (≈ 20 µg/mL). The MIC with Escherichia coli 37 came to 3.66 µM (≈ 5 µg/mL); against Pseudomonas aeruginosa, 7.32 µM (≈ 10 µg/mL); in [11], 29.3 µM (≈ 40 µg/mL); in assay [12] it was 29.3 µM (≈ 40 µg/mL); in assay [13], 7.32 µM (≈ 10 µg/mL).
Take `CC[C@H](C)[C@H](NC(=O)[C@H](CCCN=C(N)N)NC(=O)[C@H](Cc1c[nH]c2ccccc12)NC(=O)[C@H](CC(C)C)NC(=O)[C@@H](N)CCCN=C(N)N)C(=O)N[C@H](C(=O)N[C@H](C(=O)N[C@H](C(=O)N[C@@H](CCCN=C(N)N)C(=O)N[C@H](C(=O)N[C@@H](CCCCN)C(=O)N[C@@H](CCCN=C(N)N)C(N)=O)C(C)C)[C@@H](C)CC)C(C)C)C(C)C` [RLWRIVVIRVKR]: the MIC is 16 µM (≈ 25.5 µg/mL) in assay [14], no less than 32 µM in assay [15], no less than 32 µM in assay [16] and 16 µM (≈ 25.5 µg/mL) in [17].
